Assay results taken from patent publication US20090209550A1, “SUBSTITUTED TRIAZOLOPYRIDINES” (AUSPEX PHARMACEUTICALS, INC., priority 2008, published 2009).
Structures can show the parent of a compound that is named as a salt.

Experiment: In vitro liver microsomal stability assay
Type: in vitro ADME
Details: '+' marks the bin; human liver microsomes 1 mg per mL protein, NADPH-generating system, 1 μM, 37° C.; compared to non-isotopically enriched drug
Experimental: Liver microsomal stability assays are conducted at 1 mg per mL liver microsome protein with an NADPH-generating system in 2% NaHCO3 (2.2 mM NADPH, 25.6 mM glucose 6-phosphate, 6 units per mL glucose 6-phosphate dehydrogenase and 3.3 mM MgCl2). Test compounds are prepared as solutions in 20% acetonitrile-water and added to the assay mixture (final assay concentration 1 μM) and incubated at 37° C. Final concentration of acetonitrile in the assay should be <1%. Aliquots (50 μL) are taken out at times 0, 0.25, […], and 1 hours, and diluted with ice cold acetonitrile (200 μL) to stop the reactions. Samples are centrifuged at 12,000 RPM for 10 min to precipitate proteins. Supernatants are transferred to micro centrifuge tubes and stored for LC/MS/MS analysis of the degradation half-life of the test compounds.

| % increase of HLM degradation half-life, 0%-50% | SMILES | other results |
| --- | --- | --- |
| + (0%-50%) | [2H]C([2H])(CC([2H])([2H])n1nc2ccccn2c1=O)N1CCN(c2cccc(Cl)c2)CC1 [Example 4, 2-(3-(4-(3-Chlorophenyl)piperazin-1-yl)propyl-1,1,3,3-d4)-[1,2,4]triazolo[4,3-a]pyridin-3(2H)one hydrochloride] |  |
| + (0%-50%) | [2H]C([2H])(N1CCN(c2cccc(Cl)c2)CC1)C([2H])([2H])C([2H])([2H])n1nc2ccccn2c1=O [Example 5, 2-(3-(4-(3-Chlorophenyl)piperazin-1-yl)propyl-1,1,2,2,3,3-d6)-[1,2,4]triazolo[4,3-a]pyridin-3(2H)one hydrochloride] |  |
| + (0%-50%) | [2H]C([2H])(CCN1CCN(c2cccc(Cl)c2)CC1)n1nc2ccccn2c1=O [Example 3, 2-(3-(4-(3-Chlorophenyl)piperazin-1-yl)propyl-1,1-d2)-[1,2,4]triazolo[4,3-a]pyridin-3(2H)one hydrochloride] |  |

The next lines start with the compound.

| SMILES | % increase of HLM degradation half-life, 0%-50% | other results |
| --- | --- | --- |
| [2H]C([2H])(CCn1nc2ccccn2c1=O)N1CCN(c2cccc(Cl)c2)CC1 [Example 2, 2-(3-(4-(3-Chlorophenyl)piperazin-1-yl)propyl-3,3-d2)-[1,2,4]triazolo[4,3-a]pyridin-3(2H)one hydrochloride] |  | % increase of HLM degradation half-life, >150%: + (>150%) |
| O=c1n(CCCN2CCN(c3cccc(Cl)c3)CC2)nc2ccccn12 [Example 1, 2-(3-(4-(3-Chlorophenyl)piperazin-1-yl)propyl)-[1,2,4]triazolo[4,3-a]pyridin-3(2H)one, reference compound] |  | % increase of HLM degradation half-life, 50%-150%: + (50%-150%) |
